According to US8026218B2, “Bifunctional analgesic compounds for opioid receptor agonists and neurokinin-1 receptor antagonists” (The University of Arizona, priority 2006, dated 2011):
Where two headings read alike, the source gives them in different places. Peptide text beside a SMILES is read from it.

How the values were obtained:
μ opioid receptors (GPI) = assay: Guinea pig isolated ileum (GPI) assay, opioid agonist;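 further: inhibition of electrically evoked contractions (0.1 Hz, 0.4 msec, supramaximal voltage) in organ baths at 37 °C, contraction height 3 min after each cumulative dose versus the 1 min before dosing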
[1] = target: T1, rat μ opioid receptors (rMOR) (Rattus norvegicus, UniProt P33535); assay: biochemical; assay type: biochemical
T1 construct: expressed in transfected cells; host or cells: HN9.10 neuroblastoma cell line, pCDNA3, neomycin-selected clones

[2] = target: T2, human δ opioid receptors (hDOR) (Homo sapiens, UniProt P41143); assay: [35S]GTP-γ-S binding assay, hDOR; assay type: biochemical; conditions: for EC50: read-out: GTP hDOR EC50
T2 construct: expressed in transfected cells; host or cells: HN9.10 neuroblastoma cell line, pCDNA3, neomycin-selected clones

δ opioid receptors (MVD) = target: T3, δ opioid receptors (MVD) (Mus musculus, UniProt P32300); assay: Mouse isolated vas deferens (MVD) assay, opioid agonist
T3 construct: from tissue; host or cells: mouse (ICR) isolated vas deferens

[3] = target: T4, Substance P receptors (guinea pig NK1) (Cavia porcellus, UniProt P30547); assay: Guinea pig isolated ileum (GPI) assay with substance P stimulation in presence of 1 μM naloxone
T4 construct: from tissue; host or cells: guinea pig (Hartley) ileum LMMP, 1 μM naloxone present

[4] = Table 35, read-out: GPI/LMMP μ-agonist IC50
[5] = Table 32, read-out: GTP rMOR EC50
[6] = Table 32, read-out: GTP rMOR EMax
[7] = Table 32, read-out: GTP hDOR EMax
[8] = GPI/LMMP SP antagonist Ke (nM), Table 35
[9] = Table 39, read-out: GTP binding rMOR Emax
[10] = Table 39, read-out: GTP binding hDOR Emax
[11] = Table 39, read-out: GPI/LMMP opioid(mu) agonist (IC50; nM)

T4 sequence (P30547 whole entry): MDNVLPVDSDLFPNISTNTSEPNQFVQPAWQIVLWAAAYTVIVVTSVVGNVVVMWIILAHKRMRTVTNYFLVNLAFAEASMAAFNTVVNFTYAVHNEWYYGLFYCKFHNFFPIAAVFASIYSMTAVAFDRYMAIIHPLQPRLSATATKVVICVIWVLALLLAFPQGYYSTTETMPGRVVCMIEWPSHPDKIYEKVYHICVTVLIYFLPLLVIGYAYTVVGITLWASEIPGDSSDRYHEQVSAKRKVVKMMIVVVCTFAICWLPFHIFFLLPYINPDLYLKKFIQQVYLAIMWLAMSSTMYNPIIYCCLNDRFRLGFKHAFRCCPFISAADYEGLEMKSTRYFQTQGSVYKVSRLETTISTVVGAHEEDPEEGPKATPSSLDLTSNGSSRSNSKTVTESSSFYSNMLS
T3 sequence (P32300 whole entry): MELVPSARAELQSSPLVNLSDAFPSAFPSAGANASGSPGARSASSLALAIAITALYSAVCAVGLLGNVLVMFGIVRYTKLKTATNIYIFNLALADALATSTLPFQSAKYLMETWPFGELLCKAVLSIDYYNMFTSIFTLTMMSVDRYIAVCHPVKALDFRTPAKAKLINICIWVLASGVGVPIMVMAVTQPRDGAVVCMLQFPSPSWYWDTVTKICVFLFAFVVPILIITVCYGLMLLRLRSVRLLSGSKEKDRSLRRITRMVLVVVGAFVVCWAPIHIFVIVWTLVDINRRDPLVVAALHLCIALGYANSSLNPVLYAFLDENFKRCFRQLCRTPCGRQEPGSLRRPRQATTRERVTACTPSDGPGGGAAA
T2 sequence (P41143 whole entry): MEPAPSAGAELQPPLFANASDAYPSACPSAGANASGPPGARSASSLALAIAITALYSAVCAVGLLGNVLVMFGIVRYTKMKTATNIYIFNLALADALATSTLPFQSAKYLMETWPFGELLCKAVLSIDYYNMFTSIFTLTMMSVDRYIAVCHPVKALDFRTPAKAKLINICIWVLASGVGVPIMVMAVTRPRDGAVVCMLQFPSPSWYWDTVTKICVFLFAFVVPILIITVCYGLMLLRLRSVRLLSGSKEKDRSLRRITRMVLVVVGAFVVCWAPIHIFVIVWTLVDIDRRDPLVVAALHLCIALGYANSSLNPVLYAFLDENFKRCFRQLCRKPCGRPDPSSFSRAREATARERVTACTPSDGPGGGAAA
T1 sequence (P33535 whole entry): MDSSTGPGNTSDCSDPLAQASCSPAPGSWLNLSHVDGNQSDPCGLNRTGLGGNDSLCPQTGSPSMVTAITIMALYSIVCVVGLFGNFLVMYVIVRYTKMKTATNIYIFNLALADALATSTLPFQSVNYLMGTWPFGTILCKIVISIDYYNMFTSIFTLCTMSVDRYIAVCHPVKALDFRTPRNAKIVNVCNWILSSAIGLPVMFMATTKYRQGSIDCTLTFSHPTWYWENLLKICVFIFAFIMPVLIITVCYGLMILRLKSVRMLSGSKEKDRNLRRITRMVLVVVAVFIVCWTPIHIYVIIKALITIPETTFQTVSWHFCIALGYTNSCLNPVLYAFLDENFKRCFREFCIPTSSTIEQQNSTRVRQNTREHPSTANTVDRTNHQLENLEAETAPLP

**Q.** For `C[C@@H](NC(=O)[C@@H](N)Cc1ccc(O)cc1)C(=O)NCC(=O)N[C@@H](Cc1ccccc1)C(=O)NCC(=O)N[C@@H](Cc1c[nH]c2ccccc12)C(=O)OCc1cc(C(F)(F)F)cc(C(F)(F)F)c1` [NP30] (HELM PEPTIDE1{Y.[dA].G.F.G.W.[FC(F)(F)c1cc(CO[*:1])cc(C(F)(F)F)c1]}$$$$V2.0; N-terminus assumed), which IC50 (μ opioid receptors (GPI); [4]) is on record?
**A.** 25.7 nM

**Q.** For `C[C@@H](NC(=O)[C@@H](N)Cc1ccc(O)cc1)C(=O)NCC(=O)N[C@@H](Cc1ccccc1)C(=O)NCCC(=O)N[C@@H](Cc1c[nH]c2ccccc12)C(=O)OCc1cc(C(F)(F)F)cc(C(F)(F)F)c1` [NP32] (HELM PEPTIDE1{Y.[dA].G.F.[bAla].W.[FC(F)(F)c1cc(CO[*:1])cc(C(F)(F)F)c1]}$$$$V2.0; N-terminus assumed), which IC50 (μ opioid receptors (GPI); [4]) is on record?
**A.** 435 nM

**Q.** `C[C@@H](NC(=O)[C@@H](N)Cc1ccc(O)cc1)C(=O)NCC(=O)N[C@@H](Cc1ccccc1)C(=O)N[C@@H](Cc1c[nH]c2ccccc12)C(=O)OCc1cc(C(F)(F)F)cc(C(F)(F)F)c1` [NP36] (HELM PEPTIDE1{Y.[dA].G.F.W.[FC(F)(F)c1cc(CO[*:1])cc(C(F)(F)F)c1]}$$$$V2.0; N-terminus assumed) was tested. Which IC50 (μ opioid receptors (GPI); Table 36, read-out: GPI μ-agonist IC50) did it give?
**A.** 523 nM

**Q.** With `CSCC[C@H](NC(=O)[C@H](Cc1ccccc1)NC(=O)CNC(=O)[C@@H](C)NC(=O)[C@@H](N)Cc1ccc(O)cc1)C(=O)N[C@@H](Cc1c[nH]c2ccccc12)C(=O)OCc1cc(C(F)(F)F)cc(C(F)(F)F)c1` [NP38] (HELM PEPTIDE1{Y.[dA].G.F.M.W.[FC(F)(F)c1cc(CO[*:1])cc(C(F)(F)F)c1]}$$$$V2.0; N-terminus assumed) as the compound, how does the EC50 [1, 5] read?
**A.** 0.8 nM

**Q.** And the Emax [1, 6]?
**A.** 51%

**Q.** What about the EC50 ([2]; Table 32) of the same compound?
**A.** 1.1 nM

**Q.** What about the Emax [2, 7] of the same compound?
**A.** 36%

**Q.** And the IC50 (δ opioid receptors (MVD))?
**A.** 9.07 nM

**Q.** What about the Kb [3, 8] of the same compound?
**A.** 2 nM

**Q.** And the IC50 (μ opioid receptors (GPI); [4])?
**A.** 393 nM

**Q.** For `C[C@@H](NC(=O)[C@H](Cc1ccccc1)NC(=O)CNC(=O)[C@@H](C)NC(=O)[C@@H](N)Cc1ccc(O)cc1)C(=O)N[C@@H](Cc1c[nH]c2ccccc12)C(=O)OCc1cc(C(F)(F)F)cc(C(F)(F)F)c1` [NP40] (HELM PEPTIDE1{Y.[dA].G.F.[dA].W.[FC(F)(F)c1cc(CO[*:1])cc(C(F)(F)F)c1]}$$$$V2.0; N-terminus assumed), which EC50 [1, 5] is on record?
**A.** 93.1 nM

**Q.** What about the Emax [1, 6] of the same compound?
**A.** 19%

**Q.** And the EC50 ([2]; Table 32)?
**A.** 71.3 nM

**Q.** What about the Emax [2, 7] of the same compound?
**A.** 89%

**Q.** And the IC50 (δ opioid receptors (MVD))?
**A.** 58 nM

**Q.** And the Kb [3, 8]?
**A.** 608 nM

**Q.** What about the IC50 (μ opioid receptors (GPI); [4]) of the same compound?
**A.** 528 nM

**Q.** `C[C@@H](NC(=O)[C@@H](N)Cc1ccc(O)cc1)C(=O)NCC(=O)N[C@@H](Cc1ccc(Cl)cc1)C(=O)NCC(=O)N[C@@H](Cc1c[nH]c2ccccc12)C(=O)OCc1cc(C(F)(F)F)cc(C(F)(F)F)c1` [NP46] (HELM PEPTIDE1{Y.[dA].G.[O=C([C@H](Cc1ccc(Cl)cc1)N[*:1])[*:2]].G.W.[FC(F)(F)c1cc(CO[*:1])cc(C(F)(F)F)c1]}$$$$V2.0; N-terminus assumed) was tested. Which IC50 (μ opioid receptors (GPI); Table 37, read-out: GPI μ-agonist IC50) did it give?
**A.** 124 nM

**Q.** How did the IC50 (δ opioid receptors (MVD)) turn out when `Cc1cc(O)cc(C)c1C[C@H](N)C(=O)N[C@H](C)C(=O)N[C@@H](Cc1c[nH]c2ccccc12)C(=O)OCc1cc(C(F)(F)F)cc(C(F)(F)F)c1` [NP48] was run?
**A.** 408 nM

**Q.** And the “GPI μ-agonist, % at 1 μM” value (μ opioid receptors (GPI); Table 36, at 1 μM)?
**A.** 20.4% at 1 μM

**Q.** `CC(C)C[C@H](NC(=O)[C@@H]1CCCN1C(=O)[C@H](Cc1ccccc1)NC(=O)[C@H](Cc1ccccc1)NC(=O)CNC(=O)[C@@H](C)NC(=O)[C@@H](N)Cc1ccc(O)cc1)C(=O)N[C@@H](Cc1c[nH]c2ccccc12)C(=O)NCc1cc(C(F)(F)F)cc(C(F)(F)F)c1` [TY015] (HELM PEPTIDE1{Y.[dA].G.F.F.P.L.W.[FC(F)(F)c1cc(CN[*:1])cc(C(F)(F)F)c1]}$$$$V2.0; N-terminus assumed) was tested. Which EC50 ([1]; Table 39, read-out: GTP binding rMOR EC50) did it give?
**A.** 176 nM

**Q.** What about the Emax [1, 9] of the same compound?
**A.** 64.4%

**Q.** What about the Emax [2, 10] of the same compound?
**A.** 142%

**Q.** How did the Emax [1, 9] turn out when `CC(C)C[C@H](NC(=O)[C@@H]1CCCN1C(=O)[C@H](Cc1ccccc1)NC(=O)[C@H](Cc1ccccc1)NC(=O)CNC(=O)[C@@H](C)NC(=O)[C@@H](N)Cc1ccc(O)cc1)C(=O)N[C@@H](Cc1c[nH]c2ccccc12)C(=O)N(C)Cc1cc(C(F)(F)F)cc(C(F)(F)F)c1` [TY017] (HELM PEPTIDE1{Y.[dA].G.F.F.P.L.W.[CN(Cc1cc(C(F)(F)F)cc(C(F)(F)F)c1)[*:1]]}$$$$V2.0; N-terminus assumed) was run?
**A.** 62.4%

**Q.** What about the Emax [2, 10] of the same compound?
**A.** 125%

**Q.** With `CSCC[C@H](NC(=O)[C@H](Cc1ccccc1)NC(=O)CNC(=O)[C@@H](C)NC(=O)[C@@H](N)Cc1ccc(O)cc1)C(=O)N[C@H](CC(C)C)C(=O)N[C@@H](CC(C)C)C(=O)N[C@@H](Cc1c[nH]c2ccccc12)C(=O)OCc1cc(C(F)(F)F)cc(C(F)(F)F)c1` [TY021] (HELM PEPTIDE1{Y.[dA].G.F.M.[dL].L.W.[FC(F)(F)c1cc(CO[*:1])cc(C(F)(F)F)c1]}$$$$V2.0) as the compound, how does the Emax [1, 9] read?
**A.** 51.4%

**Q.** What about the Emax [2, 10] of the same compound?
**A.** 41.1%

**Q.** How did the Emax [1, 9] turn out when `CSCC[C@H](NC(=O)[C@H](Cc1ccccc1)NC(=O)CNC(=O)[C@@H](C)NC(=O)[C@@H](N)Cc1ccc(O)cc1)C(=O)NC(C)(C)C(=O)N[C@@H](CC(C)C)C(=O)N[C@@H](Cc1c[nH]c2ccccc12)C(=O)OCc1cc(C(F)(F)F)cc(C(F)(F)F)c1` [TY022] was run?
**A.** 32%

**Q.** How did the Emax ([1]; read-out: GTP binding rMOR Emax) turn out when `CSCC[C@H](NC(=O)[C@H](Cc1ccccc1)NC(=O)CNC(=O)[C@@H](C)NC(=O)[C@@H](N)Cc1ccc(O)cc1)C(=O)N1CCC[C@@H]1C(=O)N[C@@H](CC(C)C)C(=O)N[C@@H](Cc1c[nH]c2ccccc12)C(=O)OCc1cc(C(F)(F)F)cc(C(F)(F)F)c1` [TY024] was run?
**A.** 28%

**Q.** And the Emax ([2]; read-out: GTP binding hDOR Emax)?
**A.** 21%

**Q.** For `CSCC[C@H](NC(=O)[C@H](Cc1ccccc1)NC(=O)CNC(=O)[C@@H](C)NC(=O)[C@@H](N)Cc1ccc(O)cc1)C(=O)N1CCC[C@H]1C(=O)N[C@@H](CC(C)C)C(=O)N[C@@H](Cc1c[nH]c2ccccc12)C(=O)N(C)Cc1cc(C(F)(F)F)cc(C(F)(F)F)c1` [TY028], which Emax [1, 9] is on record?
**A.** 52%

**Q.** And the Emax [2, 10]?
**A.** 59%

**Q.** What about the IC50 (δ opioid receptors (MVD)) of the same compound?
**A.** 11.2 nM

**Q.** And the Kb ([3]; GPI/LMMP SP antagonist (Ke; nM), Table 39)?
**A.** 4.6 nM

**Q.** What about the IC50 (μ opioid receptors (GPI); [11]) of the same compound?
**A.** 971 nM

**Q.** Which Emax [1, 9] does the source give for `COc1cc(COC(=O)[C@H](Cc2c[nH]c3ccccc23)NC(=O)[C@H](CC(C)C)NC(=O)[C@@H]2CCCN2C(=O)[C@H](CCSC)NC(=O)[C@H](Cc2ccccc2)NC(=O)CNC(=O)[C@@H](C)NC(=O)[C@@H](N)Cc2ccc(O)cc2)cc(OC)c1` [TY030] here?
**A.** 59%

**Q.** And the Emax [2, 10]?
**A.** 61%

**Q.** And the IC50 (μ opioid receptors (GPI); [11])?
**A.** 31 nM

**Q.** For `CSCC[C@H](NC(=O)[C@H](Cc1ccccc1)NC(=O)CNC(=O)[C@@H](CS)NC(=O)[C@@H](N)Cc1ccc(O)cc1)C(=O)N1CCC[C@H]1C(=O)N[C@@H](CC(C)C)C(=O)N[C@@H](Cc1c[nH]c2ccccc12)C(=O)OCc1cc(C(F)(F)F)cc(C(F)(F)F)c1` [TY031] (HELM PEPTIDE1{Y.[dC].G.F.M.P.L.W.[FC(F)(F)c1cc(CO[*:1])cc(C(F)(F)F)c1]}$$$$V2.0; N-terminus assumed), which IC50 (δ opioid receptors (MVD)) is on record?
**A.** 235 nM

**Q.** Which Emax [1, 9] does the source give for `CCCC[C@H](NC(=O)[C@H](Cc1ccccc1)NC(=O)CNC(=O)[C@@H](C)NC(=O)[C@@H](N)Cc1c(C)cc(O)cc1C)C(=O)N1CCC[C@H]1C(=O)N[C@@H](CC(C)C)C(=O)N[C@@H](Cc1c[nH]c2ccccc12)C(=O)NCc1cc(C(F)(F)F)cc(C(F)(F)F)c1` [TY050] here?
**A.** 45%

**Q.** `CSCC[C@H](N)C(=O)N1CCC[C@H]1C(=O)N[C@@H](CC(C)C)C(=O)N[C@@H](Cc1c[nH]c2ccccc12)C(=O)NCc1cc(C(F)(F)F)cc(C(F)(F)F)c1` [TY051] (HELM PEPTIDE1{M.P.L.W.[FC(F)(F)c1cc(CN[*:1])cc(C(F)(F)F)c1]}$$$$V2.0; N-terminus assumed) was tested. Which “GTP binding rMOR EC50” value ([1]; Table 39) did it give?
**A.** no response
